# Patent publication US9303025B2, “Apoptosis-inducing agents for the treatment of cancer and immune and autoimmune diseases” (AbbVie Inc., priority 2008, dated 2016)
# Target: GST-Bcl-2 (Homo sapiens (Human), UniProt P10415)
# Experiment: Time Resolved-Fluorescence Resonance Energy Transfer (TR-FRET) Bcl-2 binding assay
# Details: GST-Bcl-2 1 nM, F-Bak peptide probe 100 nM, Tb-anti-GST antibody 1 nM; 3 hours at room temperature; Ki by Wang's equation
# Description: Tb-anti-GST antibody was purchased from Invitrogen (Catalog No. PV4216).
# Representative compounds were serially diluted in dimethyl sulfoxide (DMSO) starting at 50 μM (2× starting concentration; 10% DMSO) and 10 μL were transferred into a 384-well plate. The samples are then mixed on a shaker for 1 minute and incubated for an additional 3 hours at room temperature. For each assay, the probed antibody and protein/probe/antibody were included on each assay plate as negative and positive controls, respectively. Fluorescence was measured on the Envision (Perkin Elmer) using a 340/35 nm excitation filter and 520/525 (F-Bak peptide) and 495/510 nm (Tb-labeled anti-Histidine antibody) emission filters.
# The samples were then mixed on a shaker for 1 minute and incubated for an additional 3 hours at room temperature. For each assay, the probe/antibody and protein/probe/antibody were included on each assay plate as negative and positive controls, respectively. Fluorescence was measured on the Envision (Perkin Elmer) using a 340/35 nm excitation filter and 520/525 (F-Bak peptide) and 495/510 nm (Tb-labeled anti-Histidine antibody) emission filters.
# The inhibition constant (Ki) is the dissociation constant of an enzyme-inhibitor complex or a protein/small molecule complex, wherein the small molecule is inhibiting binding of one protein to another protein. So a large Ki value indicates a low binding affinity and a small Ki value indicates a high binding affinity.
# GST-Bcl-2, sequence (P10415 whole entry): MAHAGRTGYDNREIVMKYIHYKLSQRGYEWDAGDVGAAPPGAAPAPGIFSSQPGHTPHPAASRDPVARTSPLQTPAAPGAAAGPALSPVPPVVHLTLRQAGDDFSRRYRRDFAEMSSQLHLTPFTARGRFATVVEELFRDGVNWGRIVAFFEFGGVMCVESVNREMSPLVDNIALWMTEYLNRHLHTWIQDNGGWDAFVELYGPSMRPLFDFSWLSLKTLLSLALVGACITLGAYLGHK
row,Compound,Ki [pM]
1,"CC1(C)CCC(CN2CCN(c3ccc(C(=O)NS(=O)(=O)c4ccc(NCC5CCOCC5)c([N+](=O)[O-])c4)c(Oc4cccc5c4CC(=O)N5)c3)CC2)=C(c2ccc(Cl)cc2)C1 [Example 268, 4-(4-{[2-(4-chlorophenyl)-4,4-dimethylcyclohex-1-en-1-yl]methyl}piperazin-1-yl)-N-({3-nitro-4-[(tetrahydro-2H-pyran-4-ylmethyl)amino]phenyl}sulfonyl)-2-[(2-oxo-2,3-dihydro-1H-indol-4-yl)oxy]benzamide]",42
2,"CC1(C)CCC(CN2CCN(c3ccc(C(=O)NS(=O)(=O)c4ccc(NCCCN5CCCC5)c([N+](=O)[O-])c4)c(Oc4cccc(Cl)c4F)c3)CC2)=C(c2ccc(Cl)cc2)C1 [Example 149, 2-(3-chloro-2-fluorophenoxy)-4-(4-{[2-(4-chlorophenyl)-4,4-dimethylcyclohex-1-en-1-yl]methyl}piperazin-1-yl)-N-({3-nitro-4-[(3-pyrrolidin-1-ylpropyl)amino]phenyl}sulfonyl)benzamide]",30
3,"4-(4-{[2-(4-chlorophenyl)-4,4-dimethylcyclohex-1-en-1-yl]methyl}piperazin-1-yl)-N-[(4-{[3-(dimethylamino)propyl]amino}-3-nitrophenyl]-2-(3-fluorophenoxy)benzamide [Example 138]",16
